Two molecules from US12121530B2, “Composition and methods for treating articulating joint disorders with nucleoside reverse transcriptase inhibitors” (RHODE ISLAND HOSPITAL, priority 2018, dated 2024) can be followed below.

Each structure is given as a SMILES string. “Also recorded” adds a separate entry of the source.

For assay [1], the system named is mouse primary chondrocytes. The assay is described as follows: RT-qPCR gene expression in mouse primary chondrocytes treated with 3TC or FTC at various dosages. Format: cell-based. How it is done: Rib cages were sterilely isolated from neonatal mice (within 7-day-old) of desired genotypes and rinsed with HBSS for five times. To remove unspecific tissues, rib cages were digested in Collagenase D (3 μg/mL, Roche, Cat. 11088882001, Mannheim, Germany) for 2-4 hrs at 37° C. and rinsed with HBSS (Gibco®, Grand Island, N.Y. 14072 USA) for five times to remove detached unspecific tissues. To detach chondrocytes from rib cages, the samples underwent secondary digestion in Collagenase D (3 μg/mL) for at least 4 hrs at 37° C. with constant agitation (200 rpm). Detached chondrocytes were pelleted to remove excessive Collagenase D and resuspended in complete medium of DMEM (Gibco®, Grand Island, N.Y. 14072 USA) which contains 10% FBS, 100 U/mL penicillin and 100 μg/mL streptomycin (Gibco®, Grand Island, N.Y. 14072 USA). Growth plate PCs were grown at 37° C. in an atmosphere of 5% CO2. The media was changed on the following day to remove remaining Collagenase D and every 3 days thereafter. Similarly, articular cartilages were sterilely isolated under dissection microscope from neonatal mice (within 7-day-old) of desired genotypes and rinsed with HBSS for five times. In brief, the skins of hindlimbs were removed and transections on Ilia and muscles around hip joints were made to detach hindlimbs from torsi, then transferred to a petri dish. Under a dissection microscope placed in a cell culture hood, soft tissues were cleared while knee and hip joints were exposed. Femur heads could be easily peeled off whilst a fine cut of epiphyses based on vascularization were made to isolate articular cartilage from secondary ossification center. Beyond that, isolated tissues were minced into finer fragments and then put together before undergoing HBSS rinse and subsequent Collagenase D digestion. To remove unspecific tissues, articular cartilages were minced and digested in Collagenase D (3 μg/mL) for 2 hrs at 37° C. and rinsed with HBSS for five times to remove detached unspecific tissues. To detach chondrocytes from cartilage matrix, the samples underwent secondary digestion in Collagenase D (3 μg/mL) for at least 4 hrs at 37° C. with constant agitation (200 rpm). Detached chondrocytes were pelleted to remove excessive Collagenase D and resuspended in complete medium of DMEM which contains 10% FBS, 100 U/mL penicillin and 100 μg/mL streptomycin. Articular PCs were grown at 37° C. in an atmosphere of 5% CO2. The media was changed on the following day to remove remaining Collagenase D and every 3 days thereafter. Both miRNA and mRNA were extracted using miRNeasy Mini Kit (Qiagen®, Germantown, Md., USA) and reversely transcribed using […] (Qiagen®, Germantown, Md., USA) according to manufacturer's instruction. qPCR was performed using SYBR Green PCR master mix (Qiagen®, Germantown, Md., USA) on a Bio-Rad CFX96 real-time PCR detection system (Bio-Rad®, Hercules, Calif., USA). Amplification conditions are as follows: 95° C. for 10 min, 40 cycles of 95° C. for 10'', 55° C. for 30'', and 72° C. for 30''. 18S ribosomal or GAPDH RNA was used as an internal control gene to normalize the mRNAs level. The ubiquitously expressed snRNA U6 was used as an endogenous control for miRNAs level. […] The primers for miR-365 were purchased from Qiagen. Fold changes of mRNA and miRNAs were calculated by the 2^^(ΔΔCt) method and normalized to 18S/GAPDH or U6 snRNA, respectively.
In general terms: Quantitative PCR measures a nucleic acid by following its amplification.

In assay [2] the test system is mouse femur articular cartilage. Briefly: femur explant organ culture with 3TC or FTC, RT-qPCR of articular cartilage. The settings on record: 10 μM 3TC or 25 μM FTC, 48 hrs. Format: cell-based. An excerpt:
Femurs were obtained from 21-day-old WT C57BL/6 mice. Femurs with intact articular surface and periosteum was sterilely dissected under microscope. Upon harvesting, femurs were rinsed with HBSS (Gibco®, Grand Island, N.Y. 14072 USA) and then submerged into DMEM (Gibco, Grand Island, N.Y. 14072 USA) medium supplemented with 10% fetal bovine serum (FBS, Gibco®, Grand Island, N.Y. 14072 USA) in 12-well culture dishes. The first-generation cytidine analogue/NRTI-3TC or newest-generation cytidine analogue/NRTI-FTC was added into the medium with desired concentrations. After a total of 48 hrs incubation at 37° C. in an atmosphere of 5% CO2, femurs were rinsed with HBSS and articular cartilage was peeled off using surgical scalpels under dissecting microscope for RNA extraction. Both miRNA and mRNA were extracted using miRNeasy Mini Kit (Qiagen®, Germantown, Md., USA) and reversely transcribed using […] (Qiagen®, Germantown, Md., USA) according to manufacturer's instruction. qPCR was performed using SYBR Green PCR master mix (Qiagen®, Germantown, Md., USA) on a Bio-Rad CFX96 real-time PCR detection system (Bio-Rad®, Hercules, Calif., USA). Amplification conditions are as follows: 95° C. for 10 min, 40 cycles of 95° C. for 10'', 55° C. for 30'', and 72° C. for 30''. 18S ribosomal or GAPDH RNA was used as an internal control gene to normalize the mRNAs level. The ubiquitously expressed snRNA U6 was used as an endogenous control for miRNAs level. […] The primers for miR-365 were purchased from Qiagen. Fold changes of mRNA and miRNAs were calculated by the 2^^(ΔΔCt) method and normalized to 18S/GAPDH or U6 snRNA, respectively.

In assay [3] the test system is HIV patients. The assay is described as follows: summary data of NRTI on OA in HIV patients. The settings on record: HIV patients, older than 50, dosage dependent, both male and female. The assay is classed as in vivo, human. An excerpt: Medical provider diagnoses of ICD-9-CM 715 [osteoarthrosis and allied disorders] include the following definitions: 1) strict=ICD-9-CM 715; 2) expanded=ICD-9-CM 715, 716 [other and unspecified arthropathies], OR 719 [other and unspecified disorders of joint]); and 3) probable=strict OR expanded+respondent-reported prior diagnosis of OA or other arthritis excluding rheumatoid arthritis (RA).

Setting [4] is: mouse primary chondrocytes, RNA level, various dosages.
Where [5] appears, read: mouse chondrocytes, at lower than 100 μM concentrations.

Consider `Nc1ccn([C@@H]2CS[C@H](CO)O2)c(=O)n1` [3TC, lamivudine], for which, in assay [1] (setting [4]), the Acan expression entry is “stimulated”, the Adamts5 expression entry is “suppresses; also recorded: inhibited”, the “Col2 (Col2a1) expression” value is given as “promotes; also recorded: stimulated” and the “Col10 (Col10a1) expression” value was “suppresses; also recorded: inhibited”. Besides, in assay [1] (setting [4]), the “Ifn-α (Inf-α) expression” value was “suppresses”, the Line-1 expression result is on record as “suppresses; also recorded: inhibited” and the Mmp13 expression result is “inhibited”. In assay [2], the Acan expression result was “induces; also recorded: increased”, the Adamts5 expression result is reported as “inhibiting; also recorded: significantly inhibited”, the “Col2 (Col2a1) expression” value is “induces; also recorded: increased” and the “Col10 (Col10a1) expression” value is “inhibiting; also recorded: significantly inhibited”. In assay [2], the “Ifn-α mRNA level” value is reported as “significantly inhibited”, the “Ihh mRNA level” value is recorded as “significantly inhibited”, the “Line-1 (L1) levels” value is “inhibiting; also recorded: significantly inhibited” and the “Mmp3 mRNA level” value is “significantly inhibited”. Also, in assay [2], the Mmp13 expression result is recorded as “inhibiting; also recorded: significantly inhibited”. Also, in assay [3], the “strict OA (ICD-9-CM 715)” value is recorded as “inhibiting”.
As to `Nc1nc(=O)n([C@@H]2CS[C@H](CO)O2)cc1F` [FTC, 2′,3′-dideoxy-5-fluoro-3′-thiacytidine], in assay [1] (setting [5]), the Acan levels result is recorded as “increased” and the Col2a1 levels result is recorded as “increased”. For the same molecule, in assay [1] (setting [4]), the Acan expression entry is listed as “promotes”, the Adamts5 expression entry is recorded as “induces”, the “Col2 (Col2a1) expression” value is recorded as “promotes” and the “Col10 (Col10a1) expression” value is listed as “induces”. Moreover, in assay [1] (setting [4]), the “Ifn-α (Inf-α) expression” value is recorded as “suppresses; also recorded: significantly inhibited”, the Line-1 expression result is “suppresses; also recorded: significantly inhibited”, the Mmp3 expression result is recorded as “induces” and the Mmp13 expression entry is “induces”. Besides, in assay [1] (setting [4]), the Nlrp3 expression entry was “suppresses; also recorded: significantly inhibited” and the P2rx7 expression result is given as “suppresses; also recorded: significantly inhibited”. In addition, in assay [2], the Acan expression entry is reported as “induces; also recorded: increased”, the Adamts5 expression result is listed as “inhibits; also recorded: significantly inhibited”, the “Col2 (Col2a1) expression” value was “increased” and the “Col10 (Col10a1) expression” value is “significantly inhibited”. Moreover, in assay [2], the “Ifn-α mRNA level” value was “significantly inhibited”, the “Ihh mRNA level” value is recorded as “significantly inhibited”, the “Line-1 (L1) levels” value is given as “significantly inhibited” and the “Mmp3 mRNA level” value is given as “significantly inhibited”. In addition, in assay [2], the Mmp13 expression entry is “inhibits; also recorded: significantly inhibited”. Also, in assay [3], the “strict OA (ICD-9-CM 715)” value is “inhibiting”.
